Literature values as cited in patent US9492489B2, “Uses of hibiscus, in particular pharmaceutical uses” (NATUREX, priority 2007, dated 2016).

Measured: antibacterial properties in vitro

O=c1c(O)c(-c2ccc(O)c(O)c2)oc2c(O)c(O)cc(O)c12 [gossypetin, 3,5,7,8,3′,4′-hexahydroxy-flavone]
antibacterial properties: Bacillus pumpilus | Staphylococcus aureus | Bacillus subtilis | Pseudomonas aeruginosa | Escherichia coli
